Results taken from patent US20190352288A1, “MATRIX METALLOPROTEINASE (MMP) INHIBITORS AND METHODS OF USE THEREOF” (Foresee Pharmaceuticals Co., Ltd., priority 2018, published 2019).

Columns and labels:
Type in all cases: biochemical
recombinant human MMP-13 = recombinant human MMP-13 (Homo sapiens, UniProt P45452); test: MMP selectivity assay, MMP-13; details: Table 2 selectivity profile
Protocol: (§1) The inhibitory effect of compounds on the rate of cleaving fluorogenic MMP substrate (Enzo, BML-P128) by recombinant human MMP-12 catalytic domain (Enzo, BML-SE138) was carried out by methods known in the art. Briefly, to each well of a 96-well black opaque plate, all the reagents were sequentially added by pipetting, and the final reaction contained 4 nM of recombinant human MMP-12 catalytic domain, 4 μM of fluorogenic MMP substrate, and various concentrations (0.15 nM to 10,000 nM) of tested compound dilutions in HEPES buffer (pH 7.5) containing 10 mM of CaCl2), 0.01% Brij® 35 (polyoxyethylene (23) lauryl ether), and 0.1 mg/ml of BSA.
(§2) The enzyme and compounds were pre-incubated on a shaker to mix in wells. After an hour of mixing, fluorogenic substrate was added to each well. Reaction without enzyme was used as a blank control in the plate. The plate was then fed into a plate reader to measure fluorescence intensity at Excitation/Emission wavelengths of 340 nm/440 nm every 10 mins for at least 1 hour at 37° C. The IC50 of each compound in MMP-12 inhibition was determined by using a readout obtained at time point 30 minutes.
(§3) The MMP selectivity assay was performed by using other recombinant human MMPs, including MMP-1, MMP-2, MMP-3, MMP-7, MMP-8, MMP-9, MMP-10, MMP-13, and MMP-14. The IC50 of the compounds for the other recombinant human MMPs was determined as described above in Example 1, and are shown in Table 2.

recombinant human MMP-3 = recombinant human MMP-3 (Homo sapiens, UniProt P08254); test: MMP selectivity assay, MMP-3; details: Table 2 selectivity profile
recombinant human MMP-3, sequence (P08254 100-477): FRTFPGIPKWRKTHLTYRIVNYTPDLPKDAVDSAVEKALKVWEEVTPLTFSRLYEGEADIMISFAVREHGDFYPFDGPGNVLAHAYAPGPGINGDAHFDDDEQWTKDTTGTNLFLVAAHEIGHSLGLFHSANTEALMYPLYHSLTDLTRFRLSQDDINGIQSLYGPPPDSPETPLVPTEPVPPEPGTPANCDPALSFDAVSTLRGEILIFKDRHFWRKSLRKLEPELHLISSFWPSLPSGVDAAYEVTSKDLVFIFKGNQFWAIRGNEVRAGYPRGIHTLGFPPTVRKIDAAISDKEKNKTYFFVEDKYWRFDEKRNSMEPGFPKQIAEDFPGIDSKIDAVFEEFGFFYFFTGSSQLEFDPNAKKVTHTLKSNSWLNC
Protocol: as §1, §2, §3

recombinant human MMP-10 = recombinant human MMP-10 (Homo sapiens, UniProt P09238); test: MMP selectivity assay, MMP-10; details: Table 2 selectivity profile
recombinant human MMP-10, sequence (P09238 99-476): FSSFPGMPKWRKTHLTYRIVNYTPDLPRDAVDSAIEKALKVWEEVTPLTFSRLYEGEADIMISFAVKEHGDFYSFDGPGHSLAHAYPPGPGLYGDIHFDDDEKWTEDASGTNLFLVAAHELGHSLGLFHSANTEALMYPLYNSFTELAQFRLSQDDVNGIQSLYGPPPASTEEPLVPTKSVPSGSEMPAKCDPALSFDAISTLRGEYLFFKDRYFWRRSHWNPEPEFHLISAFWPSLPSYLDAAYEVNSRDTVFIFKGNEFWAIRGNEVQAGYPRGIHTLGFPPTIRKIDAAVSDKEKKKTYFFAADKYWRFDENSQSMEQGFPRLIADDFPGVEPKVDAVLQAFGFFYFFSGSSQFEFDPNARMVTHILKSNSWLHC
Protocol: as §1, §2, §3

[1] = biological target: T1, recombinant human MMP-12 catalytic domain (Homo sapiens, UniProt P39900); test: MMP-12 inhibitory assay (fluorogenic substrate cleavage); details: readout at 30 minutes, 37° C., Table 1
T1 construct: recombinant human MMP-12 catalytic domain; purchased Enzo BML-SE138
T1 sequence (P39900 106-268 limits assumed): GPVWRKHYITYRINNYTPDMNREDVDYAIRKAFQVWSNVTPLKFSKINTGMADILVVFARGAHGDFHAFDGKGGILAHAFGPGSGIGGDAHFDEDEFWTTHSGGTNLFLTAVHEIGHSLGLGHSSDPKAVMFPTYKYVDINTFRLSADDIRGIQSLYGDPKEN
Protocol: as §1, §2

recombinant human MMP-7 = biological target: T2, recombinant human MMP-7 (Homo sapiens, UniProt P09237); test: MMP selectivity assay, MMP-7; details: Table 2 selectivity profile
T2 sequence (P09237 95-267): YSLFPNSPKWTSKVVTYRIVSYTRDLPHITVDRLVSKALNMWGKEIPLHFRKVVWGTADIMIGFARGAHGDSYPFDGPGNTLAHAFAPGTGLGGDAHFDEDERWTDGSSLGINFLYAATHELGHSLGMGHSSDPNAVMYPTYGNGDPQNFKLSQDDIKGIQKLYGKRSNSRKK
Protocol: as §1, §2, §3

recombinant human MMP-1 = biological target: T3, recombinant human MMP-1 (Homo sapiens, UniProt P03956); test: MMP selectivity assay, MMP-1; details: Table 2 selectivity profile
T3 sequence (P03956 100-469): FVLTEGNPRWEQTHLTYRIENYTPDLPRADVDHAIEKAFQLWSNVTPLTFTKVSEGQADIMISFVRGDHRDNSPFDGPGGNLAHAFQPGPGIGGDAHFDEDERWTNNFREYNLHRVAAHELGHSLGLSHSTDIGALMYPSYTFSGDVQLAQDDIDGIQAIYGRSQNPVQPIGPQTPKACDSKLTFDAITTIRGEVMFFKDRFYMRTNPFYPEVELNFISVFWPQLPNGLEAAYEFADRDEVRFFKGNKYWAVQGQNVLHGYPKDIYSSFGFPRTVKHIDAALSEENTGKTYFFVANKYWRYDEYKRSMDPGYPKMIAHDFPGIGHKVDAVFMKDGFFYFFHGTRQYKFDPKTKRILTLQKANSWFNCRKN
Protocol: as §1, §2, §3

recombinant human MMP-2 = biological target: T4, recombinant human MMP-2 (Homo sapiens, UniProt P08253); test: MMP selectivity assay, MMP-2; details: Table 2 selectivity profile
T4 sequence (P08253 110-660): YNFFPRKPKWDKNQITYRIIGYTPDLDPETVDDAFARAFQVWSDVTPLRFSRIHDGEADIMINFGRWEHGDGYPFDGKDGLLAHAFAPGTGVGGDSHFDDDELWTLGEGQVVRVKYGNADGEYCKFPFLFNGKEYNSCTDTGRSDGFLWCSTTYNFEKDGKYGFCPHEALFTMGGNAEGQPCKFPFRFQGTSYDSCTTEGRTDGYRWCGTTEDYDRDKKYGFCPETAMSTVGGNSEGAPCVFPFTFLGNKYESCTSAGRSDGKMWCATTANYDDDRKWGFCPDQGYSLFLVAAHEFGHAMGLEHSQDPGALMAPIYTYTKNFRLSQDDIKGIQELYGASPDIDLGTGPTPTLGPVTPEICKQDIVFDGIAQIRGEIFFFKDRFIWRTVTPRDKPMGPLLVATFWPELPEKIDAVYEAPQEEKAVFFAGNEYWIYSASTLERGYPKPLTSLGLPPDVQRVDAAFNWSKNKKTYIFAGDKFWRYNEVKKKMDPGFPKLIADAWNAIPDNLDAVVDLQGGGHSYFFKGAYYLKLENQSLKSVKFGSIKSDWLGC
Protocol: as §1, §2, §3

recombinant human MMP-9 = recombinant human MMP-9 (Homo sapiens, UniProt P14780); test: MMP selectivity assay, MMP-9; details: Table 2 selectivity profile
recombinant human MMP-9, sequence (P14780 94-707): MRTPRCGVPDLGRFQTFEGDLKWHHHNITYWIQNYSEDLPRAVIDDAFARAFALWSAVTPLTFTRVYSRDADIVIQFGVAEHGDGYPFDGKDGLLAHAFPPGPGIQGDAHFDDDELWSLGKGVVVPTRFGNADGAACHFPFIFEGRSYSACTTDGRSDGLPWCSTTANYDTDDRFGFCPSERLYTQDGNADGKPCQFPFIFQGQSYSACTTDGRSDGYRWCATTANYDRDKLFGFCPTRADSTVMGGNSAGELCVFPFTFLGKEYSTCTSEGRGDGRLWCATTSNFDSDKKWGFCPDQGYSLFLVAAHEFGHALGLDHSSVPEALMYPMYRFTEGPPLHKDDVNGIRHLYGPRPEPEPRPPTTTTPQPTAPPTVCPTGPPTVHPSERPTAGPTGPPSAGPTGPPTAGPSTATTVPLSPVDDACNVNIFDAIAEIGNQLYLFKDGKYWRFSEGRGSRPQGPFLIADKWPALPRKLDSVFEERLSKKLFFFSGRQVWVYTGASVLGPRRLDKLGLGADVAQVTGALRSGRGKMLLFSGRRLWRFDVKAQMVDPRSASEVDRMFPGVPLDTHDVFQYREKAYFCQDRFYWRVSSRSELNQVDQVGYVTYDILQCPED
Protocol: as §1, §2, §3

## Cc1cc(COc2ccc(Sc3ccncc3C3NC(=O)NC3=O)cc2)ccn1 (centres unmarked) [PC-16]
Recombinant human MMP-13
  IC50: 1000 to 10000 nM
Recombinant human MMP-3
  IC50: 1000 to 10000 nM
Recombinant human MMP-10
  IC50: 1000 to 10000 nM
[1]
  IC50: < 10 nM
Recombinant human MMP-7
  IC50: > 10000 nM
Recombinant human MMP-1
  IC50: > 10000 nM
Recombinant human MMP-2
  IC50: 100 to 1000 nM
Recombinant human MMP-9
  IC50: 1000 to 10000 nM
